This is an account of results in PMC9714921 (PLOS Pathogens, 2022).

“And” between values parts separate entries of the source, which are not always exact repeats. Equal values may be shown once. Where a name gives a salt, the structure may show the parent alone. Read-outs that look alike come from different tables or passages of the source.

In one assay the target is Asu-ACR-16 (Ascaris suum, UniProt F1KYJ9). Kind of assay: cell-based. It counts as cell-based. How it is done: (§1) cRNA for oocyte injection was prepared with the mMESSAGE mMACHINE T7 kit following manufacturers protocol (Ambion, USA). Concentration was determined using a Nanodrop spectrophotometer. Desired subunit combinations with associated accessory proteins were mixed and diluted with nuclease-free water to a final concentration of 250 ng/uL for each construct.
(§2) Adult female X. laevis oocyte extraction was performed in accordance with the McGill University Animal Use Protocol 2015–7758 following standard protocol. Briefly, frog ovary lobes were placed in a Ca^2+-free OR2 solution (82 mM NaCl, 2 mM KCl, 1 mM MgCl2, 5 mM HEPES buffer, pH 7.3) and manually divided into clusters of <10 oocytes with thin tweezers followed by a 90-minute incubation in 10 mg/mL collagenase type II (Sigma-Aldrich, USA). Oocytes were washed in Ca^2+-free OR2 and placed ND96 solution (NaCl 96 mM, KCl 2 mM, CaCl2 1.8 mM, MgCl2 1 mM and HEPES 5 mM, pH 7.3) supplemented with sodium pyruvate 2.5 mM [86] and incubated at 18°C until cRNA injection. Oocytes were injected with 50 nL (12.5 ng of each injected gene) of the desired cRNA subunit and accessory protein combination mix with the NanojectII (Drummond Scientific, USA). Following injection, oocytes were incubated in ND96 buffer at 18°C until electrophysiology. All electrophysiology was conducted two days post-injection, except for the expression analysis assay in which oocytes were measured every day after injection for three consecutive days.
(§3) All drugs were dissolved in recording solution (NaCl 100 mM, KCl 2.5 mM, CaCl2 1 mM, HEPES 5 mM, pH 7.3) to a stock concentration of 10 mM and diluted to their final recording concentrations. Oxantel and bephenium were first dissolved in DMSO to ensure a final recording concentration contained less than 0.1% DMSO. For agonist profiling, all drugs were diluted to a concentration of 100 μM.
(§4) Oocytes were placed individually in an RC3Z chamber (Harvard Apparatus, USA) submerged in recording solution (NaCl 100 mM, KCl 2.5 mM, CaCl2 1 mM, HEPES 5 mM, pH 7.3). The RC3Z chamber was connected to a perfusion system containing recording solution and ligand solutions. Pulled glass capillaries (World Precision Instruments, USA) were filled with 3M KCl and the tips clipped and checked for appropriate resistance (between 0.5 and 5 MΩ). A 3M KCl agar bridge grounded the oocyte bath chamber. Measurements were made using an Axon Axoclamp 900A amplifier with Digidata1550M. […] Ligand solutions were applied to the oocytes with an approximate flow rate of 1.2 m/s and current responses measured. Oocytes were exposed to the ligand solution until a distinct current peak was observed followed by a wash with the recording solution until current returned to baseline for a minimum of 10 seconds until the next ligand exposure. For BAPTA-AM exposed oocytes, oocytes were incubated in 100 μM BAPTA-AM for four hours prior to electrophysiology recording. Data was analyzed using Clampex 9.2 (Axon Instruments, USA) and statistical analysis and graphs produced in Prism (GraphPad version 9.1). T-tests were used to compare responses with error bars representing standard error. For concentration-response curves, individual oocyte current response to the different ligand concentrations were normalized to the response obtained with 300 μM. Data was fit using the Graphpad “log(agonist) vs normalized response–variable slope” equation, with 95% confidence intervals being reported. […] For examples of oocyte responses, recordings were filtered in Clampfit using the lowband pass at 40 Hz cutoff.

The next assay concerns the target Dme-ACR-16 (Dracunculus medinensis, UniProt A0A0N4U0T6). Kind of assay: cell-based. The class given is cell-based. The protocol:
as §1, §2, §3, §4

For the next assay, the target named is Tzc-ACR-16 (Thelazia callipaeda, UniProt A0A158RD20). Description: cell-based. The class given is cell-based. The protocol:
as §1, §2, §3, §4

The subject of a further assay is Gpu-ACR-16. Description: Voltage-clamp electrophysiology, N-AChR reconstituted in Xenopus laevis oocytes. It counts as cell-based, Gonglyonema pulchrum. Particulars: for response to 100 μM ligand relative to 100 μM ACh (in words): agonist panel, Fig 5C; for current response to 100 μM nicotine: co-injected: H. contortus RIC-3. How it is done: as §1, §2, §3, §4
Assay [1] addresses Asu-ACR-16-bmaICL chimera (Ascaris suum; Brugia malayi, UniProt A0A4E9FSR7+F1KYJ9). The class given is cell-based, A. suum (B. malayi ICL). Particulars: compared to Asu-ACR-16 profile, S3D Fig. The protocol: B. malayi acr-16 and accessory proteins ric-3, unc-50, unc-74 and molo-1 were cloned from adult female B. malayi cDNA received as a gift from Dr. T. Geary using the primers described in S1 Table. B. malayi eat-18 was prepared from two overlapping oligonucleotide primers. Other subunits were synthesized from their predicted genome sequence (Gene Universal, USA) (S2 Table). […] All sequences were cloned into the pTD2 oocyte expression vector. Asu-ACR-16 and Tzc-ACR-16 chimeras were constructed using appropriate restriction enzymes, reciprocal exchange through ligation and confirmed by sequencing (McLab, USA).
as §1, §2
All drugs were dissolved in recording solution (NaCl 100 mM, KCl 2.5 mM, CaCl2 1 mM, HEPES 5 mM, pH 7.3) to a stock concentration of 10 mM and diluted to their final recording concentrations. […]
Oocytes were placed individually in an RC3Z chamber (Harvard Apparatus, USA) submerged in recording solution (NaCl 100 mM, KCl 2.5 mM, CaCl2 1 mM, HEPES 5 mM, pH 7.3). […] Ligand solutions were applied to the oocytes with an approximate flow rate of 1.2 m/s and current responses measured. […] Data was analyzed using Clampex 9.2 (Axon Instruments, USA) and statistical analysis and graphs produced in Prism (GraphPad version 9.1). […]

A further assay has as its system Bma-ACR-16. It counts as cell-based, Brugia malayi. The following applies: co-injected: H. contortus RIC-3. The protocol: as §1, §2, §3, §4
Another assay has as its system C. elegans N-AChR. The arrangement: method as in Charvet et al., 2018 [40]. The following applies: accessory protein Ric-3; ref Charvet et al., 2018 [40]; read-out: EC50 μM NIC; cited from earlier work.
For a further assay, the system named is N. americanus N-AChR. The following applies: accessory protein Ric-3; ref [33]; read-out: EC50 μM NIC; cited from earlier work.
Another assay deals with A celanicum N-AChR. The following applies: accessory protein Ric-3; ref [33]; read-out: EC50 μM NIC; cited from earlier work.
A further assay has as its system P. equorum N-AChR. Particulars: accessory protein Ric-3; ref [40]; read-out: EC50 μM NIC; cited from earlier work.

Sequence of Dme-ACR-16 (A0A0N4U0T6 entry or part of it): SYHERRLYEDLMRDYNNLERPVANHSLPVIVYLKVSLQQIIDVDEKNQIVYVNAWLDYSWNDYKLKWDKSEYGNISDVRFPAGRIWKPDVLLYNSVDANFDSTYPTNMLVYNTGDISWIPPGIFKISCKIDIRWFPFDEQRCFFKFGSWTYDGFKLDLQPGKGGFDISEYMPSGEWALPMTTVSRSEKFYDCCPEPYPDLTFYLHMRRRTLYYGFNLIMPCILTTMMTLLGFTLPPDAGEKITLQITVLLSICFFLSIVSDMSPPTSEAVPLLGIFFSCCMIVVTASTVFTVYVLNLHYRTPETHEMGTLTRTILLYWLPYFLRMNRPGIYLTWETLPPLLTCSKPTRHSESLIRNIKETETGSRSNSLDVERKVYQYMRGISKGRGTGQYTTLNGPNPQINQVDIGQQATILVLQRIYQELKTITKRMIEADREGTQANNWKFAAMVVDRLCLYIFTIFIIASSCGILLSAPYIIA
Sequence of Tzc-ACR-16 (A0A158RD20 entry or part of it): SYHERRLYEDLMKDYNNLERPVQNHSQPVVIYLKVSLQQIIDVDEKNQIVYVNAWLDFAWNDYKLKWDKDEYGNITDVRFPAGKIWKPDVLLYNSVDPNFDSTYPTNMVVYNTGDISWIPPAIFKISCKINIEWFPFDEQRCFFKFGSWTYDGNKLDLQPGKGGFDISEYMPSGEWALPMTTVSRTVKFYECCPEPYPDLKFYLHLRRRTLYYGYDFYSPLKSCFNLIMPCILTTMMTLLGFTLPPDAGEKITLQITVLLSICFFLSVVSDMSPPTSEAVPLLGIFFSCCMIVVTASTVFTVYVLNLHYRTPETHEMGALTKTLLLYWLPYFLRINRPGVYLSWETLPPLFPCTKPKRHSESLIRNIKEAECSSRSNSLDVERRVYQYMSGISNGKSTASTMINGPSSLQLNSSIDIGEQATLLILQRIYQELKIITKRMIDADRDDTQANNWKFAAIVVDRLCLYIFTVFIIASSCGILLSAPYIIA

With `C[N+](C)(CCOc1ccccc1)Cc1ccccc1` [BEPH, bephenium], the “response to 100 μM ligand relative to 100 μM ACh (in words)” value at Asu-ACR-16 (agonist panel, Fig 5A) is given as “No response”; on Dme-ACR-16 (agonist panel, Fig 5B) it was “No response”; on Tzc-ACR-16 (agonist panel, Fig 5D), “No response”; with Gpu-ACR-16, “No response”.
On to `C[N+](C)(C)CC(=O)O` [BET, betaine], for which the “response to 100 μM ligand relative to 100 μM ACh (in words)” value at Asu-ACR-16 (agonist panel, Fig 5A) was “No response”; on Dme-ACR-16 (agonist panel, Fig 5B), “No response”; at Tzc-ACR-16 (agonist panel, Fig 5D), “No response”; with Gpu-ACR-16, “No response”.
For `NCCc1ccc(O)c(O)c1` [DA, dopamine], the “response to 100 μM ligand relative to 100 μM ACh (in words)” value is listed as “No response” on Asu-ACR-16 (agonist panel, Fig 5A); “No response” on Dme-ACR-16 (agonist panel, Fig 5B); “No response” on Tzc-ACR-16 (agonist panel, Fig 5D); “No response” with Gpu-ACR-16.
As for `C[N+]1(C)CCN(c2ccccc2)CC1` [DMPP, dimethylphenylpiperazinium], the “response to 100 μM ligand relative to 100 μM ACh (in words)” value is given as “smaller response” on Asu-ACR-16 (agonist panel, Fig 5A); “smaller response” on Dme-ACR-16 (agonist panel, Fig 5B); “smaller response” on Tzc-ACR-16 (agonist panel, Fig 5D); “smaller response” in the assay with Gpu-ACR-16. The “response to 100 μM ligand relative to acetylcholine (in words)” value in assay [1] is given as “higher responses”.
As to `CNC[C@H](O)c1ccc(O)c(O)c1` [EPI, epinephrine], the “response to 100 μM ligand relative to 100 μM ACh (in words)” value at Asu-ACR-16, on Dme-ACR-16, at Tzc-ACR-16 and in the assay with Gpu-ACR-16 was “No response” throughout.
Regarding `c1ccc([C@H]2CN3CCSC3=N2)cc1` [LEV, (-)-tetramisole hydrochloride], the “response to 100 μM ligand relative to 100 μM ACh (in words)” value at Asu-ACR-16 (agonist panel, Fig 5A) is “No response”; on Dme-ACR-16 (agonist panel, Fig 5B), “No response”; on Tzc-ACR-16 (agonist panel, Fig 5D), “No response”; in the assay on Gpu-ACR-16, “No response”.
With `Cc1ccsc1/C=C/C1=NCCCN1C` [MOR, morantel], the “response to 100 μM ligand relative to 100 μM ACh (in words)” value was “minimal response” on Asu-ACR-16 (agonist panel, Fig 5A); “minimal response” at Dme-ACR-16 (agonist panel, Fig 5B); “minimal response” at Tzc-ACR-16 (agonist panel, Fig 5D); “minimal response” with Gpu-ACR-16.
On to `CN1CCC[C@H]1c1cccnc1` [NIC, (-)-nicotine hydrogen tartrate], for which the EC50 at Asu-ACR-16 was 5.1 µM; at Dme-ACR-16, 3.8 µM; at Tzc-ACR-16 it was 4.9 µM; in the assay with Gpu-ACR-16 (concentration-response 0.3-300 μM, normalized to 300 μM, with 95% CI, read-out: EC50 NIC) it was 2.1 µM; in the assay on C. elegans N-AChR, 15.1 ± 1.3 µM; in the assay with N. americanus N-AChR, 598 ± 59.1 µM. The EC50 with A celanicum N-AChR is 24.4 ± 2.89 µM; with P. equorum N-AChR, 2.9 ± 0.5 µM. Further, the “current response to 100 μM nicotine” value was 2067 ± 74 nA and 2000–2200 nA on Asu-ACR-16; 2025 ± 81 nA and 2000–2200 nA at Dme-ACR-16; 481 ± 45 nA and 400–600 nA at Tzc-ACR-16; ~ 1400 nA in the assay with Gpu-ACR-16; 1231 ± 98 nA in the assay on Gpu-ACR-16 (listed as nicotine); 0 ± 0 nA and no measurable current with Bma-ACR-16. The “response to 100 μM ligand relative to 100 μM ACh (in words)” value at Asu-ACR-16, on Dme-ACR-16, at Tzc-ACR-16 and in the assay on Gpu-ACR-16 was “large response” in each case.
For `NC[C@H](O)c1ccc(O)c(O)c1` [NOR, norepinephrine], the “response to 100 μM ligand relative to 100 μM ACh (in words)” value on Asu-ACR-16 (agonist panel, Fig 5A) was “No response”; on Dme-ACR-16 (agonist panel, Fig 5B) it was “No response”; on Tzc-ACR-16 (agonist panel, Fig 5D), “No response”; in the assay with Gpu-ACR-16, “No response”.
For `CN1CCCN=C1/C=C/c1cccc(O)c1` [OXA, oxantel], the “response to 100 μM ligand relative to 100 μM ACh (in words)” value on Asu-ACR-16 (agonist panel, Fig 5A) is “smaller response”; on Dme-ACR-16 (agonist panel, Fig 5B), “smaller response”; at Tzc-ACR-16 (agonist panel, Fig 5D), “smaller response”; in the assay with Gpu-ACR-16, “smaller response”.
Consider `CN1CCCN=C1/C=C/c1cccs1` [PYR, pyrantel], for which the “response to 100 μM ligand relative to 100 μM ACh (in words)” value at Asu-ACR-16 (agonist panel, Fig 5A) is listed as “minimal response”; on Dme-ACR-16 (agonist panel, Fig 5B) it was “minimal response”; at Tzc-ACR-16 (agonist panel, Fig 5D) it was “minimal response”; in the assay with Gpu-ACR-16, “minimal response”.
Take `NCCc1ccc(O)cc1` [TYR, tyramine]: the “response to 100 μM ligand relative to 100 μM ACh (in words)” value is reported as “No response” on Asu-ACR-16 (agonist panel, Fig 5A); “No response” at Dme-ACR-16 (agonist panel, Fig 5B); “No response” at Tzc-ACR-16 (agonist panel, Fig 5D); “No response” with Gpu-ACR-16.

The term EC50 denotes the concentration needed to bring the measured effect to its halfway point.
